Laboratory results taken from paper PMC9572513, “Novel Unsymmetric 3,5-Bis(benzylidene)-4-piperidones That Display Tumor-Selective Toxicity” (Molecules, 2022).
Where a name gives a salt, the structure may show the parent alone. Read-outs that look alike come from different tables or passages of the source.

Experiments:
[1] = MTT cytotoxicity against human gingival fibroblast (HGF); assay type: cell-based; details: human, human gingival fibroblasts (HGF), non-malignant oral cells
Description: (§1) The method for evaluating 2a–f and 3a–e against human oral squamous cell carcinoma (OSCC) cell lines (Ca9-22, HSC-2, HSC-3, HSC-4) and human non-malignant oral cells [human gingival fibroblast (HGF), human periodontal ligament fibroblast (HPLF), and human pulp cell (HPC)] have been reported previously, except the length of time of this bioassay was extended from 24 h to 48 h. In brief, different quantities of the compounds were incubated with the cells in Dulbecco’s modified eagle medium (DMEM), which was supplemented with 10% FBS and antibiotics. The cell viability was determined by the 3-(4,5-dimethylthiazol-2-yl)-2,5-diphenyl-2H-tetrazolium bromide (MTT) method as summarized previously (Figure 4).

HT29 colon cancer cells = test: Cytotoxicity against HT29 colon cancer cells; assay type: cell-based, human; details: for HT29 SI (selectivity index): IC50 CRL1790 / IC50 HT29; for IC50: 48 h
Description: (§2) The culture medium was supplemented with 10% heat-inactivated fetal bovine serum (FBS) and 1% penicillin–streptomycin antibiotics. The time of the bioassays was 48 h. The determinations were undertaken in triplicate on three different occasions.

[2] = MTT cytotoxicity against human periodontal ligament fibroblast (HPLF); assay type: cell-based; details: human, human periodontal ligament fibroblasts (HPLF), non-malignant oral cells
Description: as §1

[3] = system: Ca9-22 squamous cell carcinoma cells; test: MTT cytotoxicity against Ca9-22 squamous cell carcinoma; assay type: cell-based, human; details: for CC50: Homo sapiens, Ca9-22, 48 h, MTT, read-out: Ca9-22 CC50; for Ca9-22 SI: average CC50 HGF/HPLF/HPC divided by CC50 Ca9-22
Description: as §1

[4] = system: Ca9-22, HSC-2, HSC-3, and HSC-4 squamous cell carcinoma cell lines; test: Average over Ca9-22, HSC-2, HSC-3 and HSC-4 OSCC cell lines; assay type: cell-based, human; details: for CC50: average of four OSCC cell lines, read-out: Average CC50; for PSE (potency-selectivity expression): reciprocal of average CC50 (OSCC) x average SI x 100; for Average SI: average of SI for four OSCC cell lines
Description: as §1

[5] = system: HCT116 colon cancer cells; test: Cytotoxicity against HCT116 colon cancer cells; assay type: cell-based, human; details: for HCT116 SI (selectivity index): IC50 CRL1790 / IC50 HCT116; for IC50: 48 h
Description: as §2

CEM cells [6] = test: Differential DNA staining (DNS) cytotoxicity assay, CEM cells; assay type: cell-based; details: Homo sapiens, CCRF-CEM
Description: (§3) The method used for generating the data of human acute lymphocytic leukemia (CEM) and human acute promyelocytic leukemia (HL-60) cells in Table 4 has been described previously. In brief, the cells were cultured in media supplemented with 10% FBS and antibiotics. […] The CC50 values of the compounds listed in Table 4 were obtained by linear interpolation equations [28, 29].

HL-60 cells = test: Differential DNA staining (DNS) cytotoxicity assay, HL-60 cells; assay type: cell-based; details: Homo sapiens
Description: as §3

[7] = Average over HGF, HPLF and HPC non-malignant oral cells; assay type: cell-based, human; details: human, HPLF and HPC non-malignant oral cells (average), average of HGF
Description: as §1

[8] = system: CRL1790 non-malignant colon cells; test: Cytotoxicity against CRL1790 non-malignant colon cells; assay type: cell-based; details: Homo sapiens, 48 h
Description: as §2

[9] = MTT cytotoxicity against human pulp cell (HPC); assay type: cell-based; details: human, human pulp cells (HPC), non-malignant oral cells
Description: as §1

[10] = system: HSC-3 squamous cell carcinoma cells; test: MTT cytotoxicity against HSC-3 squamous cell carcinoma; assay type: cell-based, human; details: for CC50: Homo sapiens, HSC-3, 48 h, MTT, read-out: HSC-3 CC50; for HSC-3 SI: average CC50 HGF/HPLF/HPC divided by CC50 HSC-3
Description: as §1

[11] = system: HSC-2 squamous cell carcinoma cells; test: MTT cytotoxicity against HSC-2 squamous cell carcinoma; assay type: cell-based, human; details: for CC50: Homo sapiens, HSC-2, 48 h, MTT, read-out: HSC-2 CC50; for HSC-2 SI: average CC50 HGF/HPLF/HPC divided by CC50 HSC-2
Description: as §1

[12] = system: HCT116 and HT29 colon cancer cells; test: Average over HCT116 and HT29 colon cancer cells; assay type: cell-based, human; details: for IC50: Homo sapiens, average of HCT116 and HT29, unit printed only for the single cell-line columns; for Average SI: average of SI for HCT116 and HT29; for PSE (potency-selectivity expression): reciprocal of average IC50 x average SI x 100, colon cells
Description: as §2

[13] = system: HSC-4 squamous cell carcinoma cells; test: MTT cytotoxicity against HSC-4 squamous cell carcinoma; assay type: cell-based, human; details: for CC50: Homo sapiens, HSC-4, 48 h, MTT, read-out: HSC-4 CC50; for HSC-4 SI: average CC50 HGF/HPLF/HPC divided by CC50 HSC-4
Description: as §1

Ca9-22 cells = test: Western blot for caspase 3 activation in Ca9-22 cells; assay type: cell-based, human; details: 3 μM, 24 h
Description: (§4) Apoptosis induction in Ca9-22 cells was evaluated by cell cycle analysis and Western blot analysis as described previously (Figure 5). Briefly, for the cell cycle analysis, cells were treated for 24 h with the test samples. Cells were then fixed, digested with RNase A, stained with propidium iodide, filtered through Falcon® cell trainers (Corning Inc., Corning, NY, USA), and then subjected to cell sorting. For the Western blot, cell lysates (equivalent to 5 µg protein) were applied to SDS-polyacrylamide gel electrophoresis. A literature method was used to determine whether representative compounds led to increases in the production of ROS [29]. In brief, CEM cells were treated with the compounds overnight, then with 6-carboxy-2′,7′-dichlorodihydrofluorescein diacetate (carboxy-H2DCFDA) and the samples were processed using flow cytometry.

CEM cells [14] = test: Annexin V-FITC apoptosis assay in CEM cells; assay type: cell-based, human; details: CC50 and twice the CC50 concentrations, 24 h
Description: In order to discover if representative compounds induce apoptosis, the annexin V-FITC assay was used. In brief, CEM cells were treated with various compounds for 24 h. The cells were collected and stained with propidium iodide and annexin V-FITC.

CEM cells [15] = test: ROS production in CEM cells (carboxy-H2DCFDA, flow cytometry); assay type: cell-based, human; details: CC50 and twice the CC50 concentrations
Description: as §4

CEM cells [16] = test: Mitochondrial membrane potential in CEM cells (JC-1, flow cytometry); assay type: cell-based, human; details: 7 h
Description: The effect on the mitochondrial membrane potential in CEM cells was undertaken using a published method. In brief, the cells were incubated with different compounds for 7 h. The cells were then stained with the JC-1 dye, and the samples were examined by flow cytometry. The results are portrayed in Figure 6C.

[17] = 24 h, read-out: CC50 CEM Cells 24 h
[18] = 48 h, read-out: CC50 CEM Cells 48 h
[19] = HL-60, 24 h, read-out: CC50 HL-60 Cells 24 h
[20] = HL-60, 48 h, read-out: CC50 HL-60 Cells 48 h

SMILES	CC50 at 48 h [1]	CC50 at 48 h [2]	CC50 [3]	Ca9-22 SI [3]	CC50 ([4]; Homo sapiens)	CC50 (CEM cells [6]; [17])	CC50 (CEM cells [6]; [18])	CC50 (HL-60 cells; [19])	CC50 (HL-60 cells; [20])	CC50 at 48 h [7]	IC50 [8]	CC50 at 48 h [9]	CC50 [10]	HSC-3 SI [10]	CC50 [11]	HSC-2 SI [11]	IC50 [12]	Average SI [12]	PSE (potency-selectivity expression) [12]	CC50 [13]	further results
CN1CCN(Cc2cc(/C=C3\CNC/C(=C\c4ccc(F)cc4)C3=O)ccc2O)CC1 [Compound 3b]	18.5 µM	7.4 µM	550 nM	18.4	< 1000 nM	3.15 ± 1.29 µM	0.4 ± 0.03 µM	5.9 ± 0.76 µM	2.65 ± 0.43 µM	10.1 µM	12.6 ± 0.24 µM	4.3 µM	950 nM	10.6	910 nM	11.1	270 nM	46.8	17,333	1140 nM	HT29 SI (selectivity index) (HT29 colon cancer cells): 48.5; CC50 [4]: 890 nM; PSE (potency-selectivity expression) [4]: > 1000; HCT116 SI (selectivity index) [5]: 45.0; HSC-4 SI [13]: 8.86
COc1ccc(/C=C2\CNC/C(=C\c3ccc(O)c(CN4CCN(C)CC4)c3)C2=O)cc1OC [Compound 2f, 3-[3-(4-Methyl-1-piperazinylmethyl)-4-hydroxybenzylidene]-5-(3,4-dimethoxybenzylidene)-4-piperidone trihydrochloride]	33.1 µM	12 µM	1940 nM	8.81	2490 nM	8.91 ± 1.32 µM	2.89 ± 0.2 µM	3.75 ± 1.07 µM	2.73 ± 0.57 µM	17.1 µM	12.7 ± 0.31 µM	6.1 µM	2470 nM	6.92	2800 nM	6.11	720 nM	17.7	2458	2730 nM	IC50 (HT29 colon cancer cells): 760 ± 300 nM; IC50 (HT29 colon cancer cells; Homo sapiens, HT-29, 48 h): < 1000 nM; HT29 SI (selectivity index) (HT29 colon cancer cells): 16.7; Average SI [4]: 7.03; IC50 [5]: 680 ± 310 nM; IC50 ([5]; Homo sapiens, HCT-116, 48 h): < 1000 nM; HCT116 SI (selectivity index) [5]: 18.7; HSC-4 SI [13]: 6.26
CN1CCN(Cc2cc(/C=C3\CNC/C(=C\c4ccccc4)C3=O)ccc2O)CC1 [Compound 3a]	10.2 µM	4.7 µM	430 nM	13.6	< 1000 nM	3.06 ± 0.08 µM	3.32 ± 0.3 µM	8.27 ± 0.4 µM	1.67 ± 0.54 µM	5.83 µM	21.7 ± 0.25 µM	2.6 µM	490 nM	11.9	670 nM	8.70	370 nM	60.1	16,243	710 nM	caspase 3 activation (cleavage of PARP and procaspase) (Ca9-22 cells): induced; CC50 [4]: 580 nM; PSE (potency-selectivity expression) [4]: > 1000; apoptotic cells (CEM cells [14]): approximately 30%; ROS generation (CEM cells [15]): generate ROS; depolarization of the mitochondrial membrane potential (CEM cells [16]): induced; HSC-4 SI [13]: 8.21
COc1ccc(/C=C2\CNC/C(=C\c3ccc(O)c(CN4CCCC4)c3)C2=O)cc1OC [Compound 2c, 3-[3-(1-Pyrrolidinylmethyl)-4-hydroxybenzylidene]-5-(3,4-dimethoxybenzylidene)-4-piperidone dihydrochloride]	68.6 µM	48.9 µM	8200 nM	6.54	12000 nM	> 10 µM	7.92 ± 0.98 µM	> 10 µM	> 10 µM	53.6 µM	26.4 ± 0.28 µM	43.3 µM	11700 nM	4.58	14000 nM	3.83	2510 nM	12.2	486	14100 nM	IC50 (HT29 colon cancer cells; Homo sapiens, HT-29, 48 h): 1570 ± 540 nM; HT29 SI (selectivity index) (HT29 colon cancer cells): 16.8; Average SI [4]: 4.69; IC50 ([5]; Homo sapiens, HCT-116, 48 h): 3440 ± 420 nM; HCT116 SI (selectivity index) [5]: 7.67; HSC-4 SI [13]: 3.80
